The molecules below were run against Alpha-synuclein (Homo sapiens, UniProt P37840) (assay: Alpha-Synuclein Tissue Homogenate Binding Assay).
Experimental: For displacement α-synuclein binding assay, compounds and control were solvated in dimethyl sulfoxide (DMSO) and transferred using focused acoustic energy by an Echo 655 liquid handling instrument (Beckman Coulter, Indianapolis, IN) into designated wells of uniquely bar coded 96-well v-bottom low binding polypropylene microplates (Thermo Scientific, 249946). Compound dose response curves were prepared in a 10-point, 3-fold fashion within columns 2 -11 of the microplate from high to low compound concentrations. The final assay concentration of dose response curves when starting at 1 mM ranged from 1.2 µM to 0.061 nM (0.12 % DMSO final assay concentration, 270 nL/well). Controls included no inhibitor (DMSO only) dispensed into wells A1 – D1, A12 – D12 for minimum efficacy signal and Compound 1000 at a final assay concentration of 12 µM into wells E1 – H1, E12 – H12 for maximum efficacy signal. Liquid-handling steps for dispensing insoluble fractions of PD brain homogenates and 25666 radioligand were performed using a Bravo automated liquid handling platform equipped with a 96LT disposable tip head (Agilent Technologies, Santa Clara, CA). […] A clear adhesive seal (TopSeal-A PLUS, PerkinElmer 6050185) was then applied to the top of each microplate and counted 1 minute/well on MicroBeta2 system (PerkinElmer, Model: 2450-0120).

SMILES | Ki [µM]
COC[C@H]1CN(c2cc(F)ccn2)CCN1c1ncc(/C=C/c2ccc(-n3ccnc3)nc2)cn1 [WO2024186584, Example 17] | 0.0009
FCOC[C@H]1CN(c2ncc(/C=C/c3ccc(-n4ccnc4)nc3)cn2)CCN1c1ncccn1 [WO2024186584, Example 4] | 0.0012

What follows are molecules tested against Amyloid-beta precursor protein (Homo sapiens, UniProt P05067) (assay: Competitive radioligand binding to pathological aggregated beta amyloid in AD tissue).
Chain of Amyloid-beta precursor protein (P05067 whole entry): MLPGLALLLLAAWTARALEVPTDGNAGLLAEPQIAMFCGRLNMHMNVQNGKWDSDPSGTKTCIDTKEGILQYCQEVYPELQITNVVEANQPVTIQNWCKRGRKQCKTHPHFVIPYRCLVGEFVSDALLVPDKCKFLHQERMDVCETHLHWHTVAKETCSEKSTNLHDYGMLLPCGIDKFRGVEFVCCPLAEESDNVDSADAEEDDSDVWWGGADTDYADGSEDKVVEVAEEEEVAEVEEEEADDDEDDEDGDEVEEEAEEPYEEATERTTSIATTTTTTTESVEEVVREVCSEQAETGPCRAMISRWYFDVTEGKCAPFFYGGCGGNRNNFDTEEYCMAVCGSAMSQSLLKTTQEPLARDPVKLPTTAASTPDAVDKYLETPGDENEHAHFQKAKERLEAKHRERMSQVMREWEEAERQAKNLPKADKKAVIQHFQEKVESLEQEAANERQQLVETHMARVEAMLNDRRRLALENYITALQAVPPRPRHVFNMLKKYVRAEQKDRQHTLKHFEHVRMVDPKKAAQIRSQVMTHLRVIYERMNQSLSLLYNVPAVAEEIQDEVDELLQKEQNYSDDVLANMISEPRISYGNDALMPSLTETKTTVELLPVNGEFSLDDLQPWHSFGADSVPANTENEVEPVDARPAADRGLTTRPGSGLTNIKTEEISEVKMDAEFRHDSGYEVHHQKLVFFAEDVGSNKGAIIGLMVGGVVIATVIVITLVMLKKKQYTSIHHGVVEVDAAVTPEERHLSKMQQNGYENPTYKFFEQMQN

Ki [µM] | SMILES
4 | FCCOC[C@H]1CN(c2ncc(/C=C/c3ccc(-n4ccnc4)nc3)cn2)CCN1c1ncccn1 [WO2024186584, Example 3]
4 | COC[C@H]1CN(c2ncc(C#Cc3ccc(-n4ccnc4)nc3)cn2)CCN1c1cc(F)ncn1 [WO2024186584, Example 12]
4 | COC[C@H]1CN(c2ncc(/C=C/c3ccc(-n4ccnc4)nc3)cn2)CCN1c1ncc(OCCF)cn1 [WO2024186584, Example 35]
4 | COC[C@H]1CN(c2ncc(/C=C/c3ccc(-n4ccnc4)nc3)cn2)CCN1c1ncc(OCC(O)CF)cn1 (stereo partly drawn) [WO2024186584, Example 39]
4 | COC[C@H]1CN(c2ncccn2)CCN1c1ncc(/C=C/c2ccc(-n3ccnc3)nc2)cn1 [WO2024186584, Example 28]

SMILES | Ki [µM]
FCOC[C@H]1CN(c2ncc(/C=C/c3ccc(-n4ccnc4)nc3)cn2)CCN1c1ncccn1 [WO2024186584, Example 4] | 0.1

— BindingDB's records for patent WO2024186584 (8932 Hightail Drive, 2024)
